Test [1] addresses T1, 5-hydroxytryptamine receptor 1A (Rattus norvegicus) (UniProt P19327).
T1 sequence (whole entry): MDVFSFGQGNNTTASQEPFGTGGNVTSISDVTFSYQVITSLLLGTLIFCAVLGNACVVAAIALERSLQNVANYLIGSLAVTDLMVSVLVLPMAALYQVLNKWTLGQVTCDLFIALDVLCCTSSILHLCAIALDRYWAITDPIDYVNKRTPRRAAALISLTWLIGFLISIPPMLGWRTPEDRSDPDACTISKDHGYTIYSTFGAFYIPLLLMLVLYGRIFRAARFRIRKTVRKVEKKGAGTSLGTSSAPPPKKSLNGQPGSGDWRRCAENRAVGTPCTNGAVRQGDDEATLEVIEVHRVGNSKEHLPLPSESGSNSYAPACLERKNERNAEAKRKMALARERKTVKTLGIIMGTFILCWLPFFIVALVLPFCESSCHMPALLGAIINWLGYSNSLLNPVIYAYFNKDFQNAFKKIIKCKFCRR
The test can be described thus: (§1) Inhibition of [3H]- 8-OH-DPAT binding to 5-HT1A-receptor from rat cerebral cortex membranes. In kind it is cell membranes. The conditions noted are these: Membrane.

In test [2] the target is T2, 5-hydroxytryptamine receptor 1A (Rattus norvegicus, UniProt P19327).
T2 sequence (P19327 whole entry): T1 sequence (whole entry)
The test is described as §1. In kind it is cell membranes, Membrane.

Test [3] addresses T1, 5-hydroxytryptamine receptor 1A (Rattus norvegicus). As to the kind of experiment: Compound evaluated for inhibiting the binding of [3H]- 8-OH-DPAT to 5-HT1A-receptor from cerebral cortex membranes of rat measured as Hill coefficient. Conditions: Membrane. The test is classed as tissue-based.
Test [4] has as its system Rattus norvegicus. The test can be described thus: (§2) In vivo inhibition of L-uM/Kg. In kind it is functional.
Test [5] deals with Rattus norvegicus. The test can be described thus: Agonism to 5-HT1A receptor was measured by the accumulation of DOPA in striatum of non pretreated rats subcutaneously at 0.32 um/Kg. In kind it is functional.
The test system of test [6] is Rattus norvegicus. Described as §2. The test is classed as functional. This is another data set of the same source.
Test [7] deals with Rattus norvegicus. As to the kind of experiment: Agonism to 5-HT1A receptor was measured by the accumulation of DOPA in limbic region of non pretreated rats subcutaneously at 0.32 um/Kg. The test is classed as functional, Limbic system.

The structures appear in SMILES notation.

With `CCCN(CCC)[C@@H]1CCc2cccc(OS(=O)(=O)C(F)(F)F)c2C1`, the Hill coefficient in test [1] was found to be 0.79. This compound showed an inhibition constant (Ki) in test [2] of 3.8 nM.
The matching figures for `CCCN(CCC)[C@H]1CCc2cccc(OC)c2C1`: 0.96 and 2.8 nM.
The matching figures for `CCCN(CCC)[C@@H]1CCc2ccccc2C1`: 0.85 and 17 nM.
For `CCCN(CCC)[C@H]1CCc2cccc(-c3ccccc3)c2C1`, the Hill coefficient in test [1] was determined as 1.04. Moreover, the Ki in test [2] was 24 nM.
`CCCN(CCC)C1CCc2cccc(C(=O)O)c2C1` (racemic) displayed an inhibition constant (Ki) in test [2] of over 300 nM.
As to `CCCN(CCC)[C@@H]1CCc2cccc(OC)c2C1`, in test [1], the Hill coefficient was found to be 1.11. In test [2], this compound had a Ki of 1.5 nM.
Taken in the same sequence, the figures for `CCCN(CCC)[C@H]1CCc2cccc(OS(=O)(=O)C(F)(F)F)c2C1` were 0.83 and 9.5 nM.
`CCCN(CCC)[C@H]1CCc2ccccc2C1` yielded a Hill coefficient in test [1] of 0.83. This compound also returned a Ki in test [2] of 56 nM.
In turn, `CCCN(CCC)[C@@H]1CCc2cccc(C(=O)OC)c2C1` showed a Hill coefficient in test [3] of 0.9. This compound also had an inhibitory constant (Ki) in test [2] of 4.3 nM.
The compound `CCCN(CCC)[C@H]1CCc2cccc(C(C)=O)c2C1` had a Hill coefficient in test [1] of 0.71. The Activity in the test on Rattus norvegicus [4] is recorded as 89 ng (g of tissue)-1; with Rattus norvegicus [5], 1098 ng (g of tissue)-1; with Rattus norvegicus [6] it was 58.5 ng (g of tissue)-1; in the test with Rattus norvegicus [7], 365 ng (g of tissue)-1. The same compound gave a Ki in test [2] of 0.7 nM.
Take `CCCN(CCC)[C@H]1CCc2cccc(C(=O)OC)c2C1`: the Hill coefficient in test [3] stood at 1.01. For the same compound, in test [2], affinity was put at a Ki of 1.7 nM.
`CCCN(CCC)[C@@H]1CCc2cccc(O)c2C1` had a Hill coefficient in test [1] of 0.97. Besides, the Activity is reported as 102 ng (g of tissue)-1 in the test with Rattus norvegicus [4], 1280 ng (g of tissue)-1 in the test with Rattus norvegicus [5], 51.2 ng (g of tissue)-1 in the test with Rattus norvegicus [6] and 414 ng (g of tissue)-1 with Rattus norvegicus [7].
With `CCCN(CCC)[C@@H]1CCc2cccc(C(C)=O)c2C1`, the Activity with Rattus norvegicus [4] was 111 ng (g of tissue)-1; with Rattus norvegicus [5] it was 1101 ng (g of tissue)-1; in the test on Rattus norvegicus [6], 62.1 ng (g of tissue)-1; in the test on Rattus norvegicus [7] it was 399 ng (g of tissue)-1. The compound further registered a Hill coefficient in test [3] of 0.96. For the same compound, the affinity in test [2], expressed as Ki, was 1.8 nM.
In test [1], `CCCN(CCC)[C@@H]1CCc2cccc(-c3ccccc3)c2C1` gave a Hill coefficient of 1. In test [2], this compound showed a Ki of 7.7 nM.
`CCCN(CCC)[C@H]1CCc2cccc(O)c2C1`: the Hill coefficient in test [1] came out at 0.86. Moreover, the Activity in the test with Rattus norvegicus [4] was 112 ng (g of tissue)-1; in the test on Rattus norvegicus [5], 1136 ng (g of tissue)-1; in the test on Rattus norvegicus [6], 55.8 ng (g of tissue)-1; in the test on Rattus norvegicus [7] it was 445 ng (g of tissue)-1.
In test [1], `CCCN(CCC)[C@H]1CCc2cccc(C)c2C1` gave a Hill coefficient of 1.04. Affinity in test [2] was put at a Ki of 62 nM.
Taken in the same sequence, the figures for `CCCN(CCC)[C@@H]1CCc2cccc(C)c2C1` were 1.13 and 34 nM.

(Values after ChEMBL document CHEMBL1125987, “C8-substituted derivatives of 2-(dipropylamino)tetralin: Palladium-catalyzed synthesis and interactions with 5-HT1A-receptors” (Bioorg Med Chem Lett, 1991).)
